# In patent US10167257B2, “Indole derivatives for use in medicine” (IOmet Pharma Ltd., priority 2014, dated 2019):
# Experiments:
# TDO (A172 cells) = molecular target: T1, TDO (A172 cells) (Homo sapiens, UniProt P48775); assay: TDO cell-based assay (A172), kynurenine production; conditions: A172 human glioblastoma cells, 500 μM L-Trp, 48 h, kynurenine by absorbance at 490 nm
# T1 construct: This assay utilised cancer cells which expressed either TDO or IDO; host or cells: A172 human glioblastoma cells
# T1 sequence (P48775 whole entry): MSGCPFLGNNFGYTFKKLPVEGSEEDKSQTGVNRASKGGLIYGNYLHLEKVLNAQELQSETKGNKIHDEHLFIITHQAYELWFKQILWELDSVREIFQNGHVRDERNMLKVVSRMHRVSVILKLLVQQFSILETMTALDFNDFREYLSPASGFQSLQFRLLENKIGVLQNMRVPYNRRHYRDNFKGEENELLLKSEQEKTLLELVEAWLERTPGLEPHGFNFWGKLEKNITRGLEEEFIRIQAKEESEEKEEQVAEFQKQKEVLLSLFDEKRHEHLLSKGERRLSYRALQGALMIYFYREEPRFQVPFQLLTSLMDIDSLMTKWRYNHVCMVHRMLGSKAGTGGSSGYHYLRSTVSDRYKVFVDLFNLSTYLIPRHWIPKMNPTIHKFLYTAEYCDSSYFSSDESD
# In short: (§1)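 Kynurenine output was read at 490 nm after 5 min with 1% Ehrlich's reagent, using supernatants from 48 h, 37 °C cultures containing 500 μM L-Trp and test compound. TDO activity came from A172 cells. IDO activity came from SKOV-3 cells, whose expression was induced by adding 500 ng/ml IFNγ.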
# IDO (SKOV-3 cells) = molecular target: T2, IDO (SKOV-3 cells) (Homo sapiens, UniProt P14902); assay: IDO cell-based assay (SKOV-3, IFNγ-induced), kynurenine production; conditions: SKOV-3 ovary adenocarcinoma cells, IFNγ 500 ng/ml, 500 μM L-Trp, 48 h, kynurenine by absorbance at 490 nm
# T2 construct: This assay utilised cancer cells which expressed either TDO or IDO; host or cells: SKOV-3 ovary adenocarcinoma cells, IFNγ-induced
# T2 sequence (P14902 whole entry): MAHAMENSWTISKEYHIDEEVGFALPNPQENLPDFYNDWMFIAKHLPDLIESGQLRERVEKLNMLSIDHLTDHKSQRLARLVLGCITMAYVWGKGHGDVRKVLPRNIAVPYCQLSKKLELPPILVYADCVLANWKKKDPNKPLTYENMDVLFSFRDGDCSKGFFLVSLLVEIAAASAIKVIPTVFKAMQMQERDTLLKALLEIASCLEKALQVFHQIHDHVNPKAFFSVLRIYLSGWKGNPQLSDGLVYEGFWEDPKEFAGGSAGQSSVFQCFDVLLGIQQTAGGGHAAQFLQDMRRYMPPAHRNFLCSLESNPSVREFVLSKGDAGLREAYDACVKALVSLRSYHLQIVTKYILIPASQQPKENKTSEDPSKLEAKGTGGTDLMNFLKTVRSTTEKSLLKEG
# In short: as §1
Compound,TDO cellular assay (A172) pIC50 (TDO (A172 cells)),IDO cellular assay (SKOV3) pIC50 (IDO (SKOV-3 cells))
C[C@@H](NC(=O)c1cc2ccc(C(F)F)cc2[nH]1)c1ccccc1 [Compound 180],− (− = pIC50 <4.50),+ (+ = pIC50 4.50-<5.00)
CCOc1ccc2[nH]c(C(=O)NC3(c4ccccc4)CC3)cc2c1 [Compound 271],++ (++ = pIC50 5.00-<5.50),+++ (+++ = pIC50 ≥5.50)
CC(=O)N1CCC(C2(NC(=O)c3cc4cc(Cl)ccc4[nH]3)CC2)CC1 [Compound 160],− (− = pIC50 <4.50),+++ (+++ = pIC50 ≥5.50)
Cc1cc(C2(NC(=O)c3cc4cc(C#N)ccc4[nH]3)CC2)no1 [Compound 219],− (− = pIC50 <4.50),+++ (+++ = pIC50 ≥5.50)
COc1ccc(C2(NC(=O)c3cc4cc(Cl)ccc4[nH]3)CC2)cc1 [Compound 150],++ (++ = pIC50 5.00-<5.50),+++ (+++ = pIC50 ≥5.50)
CC(NC(=O)c1cc2cc(Cl)cnc2[nH]1)c1cnn(C)c1 (centres unmarked) [Compound 165],− (− = pIC50 <4.50),+ (+ = pIC50 4.50-<5.00)
CC(NC(=O)c1cc2cc(Cl)ccc2[nH]1)c1ccc(OCCN(C)C)cc1 (centres unmarked) [Compound 102],− (− = pIC50 <4.50),+ (+ = pIC50 4.50-<5.00)
CC(NC(=O)c1cc2ccc(C(F)F)cc2[nH]1)c1cnn(C)c1 (centres unmarked) [Compound 192],− (− = pIC50 <4.50),+ (+ = pIC50 4.50-<5.00)
CCOc1ccc2[nH]c(C(=O)NC3(c4cnn(C)c4)CC3)cc2c1 [Compound 273],− (− = pIC50 <4.50),+++ (+++ = pIC50 ≥5.50)
C[C@H](NC(=O)c1cc2cc(Cl)ccc2[nH]1)c1ccccc1 [Compound 50],+++ (+++ = pIC50 ≥5.50),+++ (+++ = pIC50 ≥5.50)
CC(NC(=O)c1cc2cc(Cl)ccc2[nH]1)c1cnn(-c2ccccc2F)c1 (centres unmarked) [Compound 115],+ (+ = pIC50 4.50-<5.00),+++ (+++ = pIC50 ≥5.50)
CC1(NC(=O)c2cc3cc(Cl)ccc3[nH]2)CC1 [Compound 139],− (− = pIC50 <4.50),+ (+ = pIC50 4.50-<5.00)
COCCc1noc(C(C)NC(=O)c2cc3cc(Cl)ccc3[nH]2)n1 (centres unmarked) [Compound 130],− (− = pIC50 <4.50),++ (++ = pIC50 5.00-<5.50)
O=C(NC1(c2cocn2)CC1)c1cc2cc(Cl)ccc2[nH]1 [Compound 274],− (− = pIC50 <4.50),+++ (+++ = pIC50 ≥5.50)
N#Cc1ccc2[nH]c(C(=O)NC3(c4ccccc4)CC3)cc2c1 [Compound 136],− (− = pIC50 <4.50),+++ (+++ = pIC50 ≥5.50)
Cn1cc(C2(NC(=O)c3cc4ccc(O)cc4[nH]3)CC2)cn1 [Compound 196],− (− = pIC50 <4.50),+ (+ = pIC50 4.50-<5.00)
COc1ccc(CNC(=O)c2cc3cc(F)ccc3[nH]2)cc1 [Compound 29],− (− = pIC50 <4.50),+ (+ = pIC50 4.50-<5.00)
O=C(NC(CO)c1ccccc1)c1cc2cc(Cl)ccc2[nH]1 (centres unmarked) [Compound 92],+ (+ = pIC50 4.50-<5.00),+++ (+++ = pIC50 ≥5.50)
C[C@@H](NC(=O)c1cc2ccc(O)cc2[nH]1)c1ccccc1 [Compound 185],+ (+ = pIC50 4.50-<5.00),+ (+ = pIC50 4.50-<5.00)
O=C(NC1(c2ccccc2)COC1)c1cc2cc(Cl)c(F)cc2[nH]1 [Compound 210],+ (+ = pIC50 4.50-<5.00),+++ (+++ = pIC50 ≥5.50)
C[C@H](NC(=O)c1cc2ccc(F)cc2[nH]1)c1ccccc1 [Compound 45],− (− = pIC50 <4.50),+ (+ = pIC50 4.50-<5.00)
O=C(NCc1ccncc1)c1cc2cc(Cl)ccc2[nH]1 [Compound 5],− (− = pIC50 <4.50),+ (+ = pIC50 4.50-<5.00)

Compound,TDO cellular assay (A172) pIC50 (TDO (A172 cells)),IDO cellular assay (SKOV3) pIC50 (IDO (SKOV-3 cells))
COCCOc1ccc(C(C)NC(=O)c2cc3cc(Cl)ccc3[nH]2)cc1 (centres unmarked) [Compound 100],++ (++ = pIC50 5.00-<5.50),+++ (+++ = pIC50 ≥5.50)
CC(Cc1cnn(C)c1)NC(=O)c1cc2cc(Cl)ccc2[nH]1 (centres unmarked) [Compound 267],++ (++ = pIC50 5.00-<5.50),+++ (+++ = pIC50 ≥5.50)
O=C(NCc1ccc(F)cc1)c1cc2cc(Cl)ccc2[nH]1 [Compound 28],− (− = pIC50 <4.50),+ (+ = pIC50 4.50-<5.00)
CC(NC(=O)c1cc2cc(C#N)ccc2[nH]1)c1ccccc1 (centres unmarked) [Compound 82],+++ (+++ = pIC50 ≥5.50),+++ (+++ = pIC50 ≥5.50)
CC(NC(=O)c1cc2cc(OCc3ccccc3)ccc2[nH]1)c1cnn(C)c1 (centres unmarked) [Compound 239],− (− = pIC50 <4.50),+ (+ = pIC50 4.50-<5.00)
CC(=O)N1CC(C(C)NC(=O)c2cc3cc(Cl)ccc3[nH]2)C1 (centres unmarked) [Compound 147],− (− = pIC50 <4.50),+++ (+++ = pIC50 ≥5.50)
N#Cc1ccc2[nH]c(C(=O)NC3(c4ccccc4)CCCC3)cc2c1 [Compound 231],− (− = pIC50 <4.50),+++ (+++ = pIC50 ≥5.50)
O=C(NC(c1ccccc1)C1CC1)c1cc2c(F)cccc2[nH]1 (centres unmarked) [Compound 12],− (− = pIC50 <4.50),+++ (+++ = pIC50 ≥5.50)
Cn1cc(C2(NC(=O)c3cc4cc(C#N)ccc4[nH]3)CC2)cn1 [Compound 145],− (− = pIC50 <4.50),+++ (+++ = pIC50 ≥5.50)
O=C(NC1CCCc2ccccc21)c1cc2ccccc2[nH]1 (centres unmarked) [Compound 66],− (− = pIC50 <4.50),++ (++ = pIC50 5.00-<5.50)
O=C(NC1(c2nc(-c3ccccc3)no2)CC1)c1cc2cc(Cl)ccc2[nH]1 [Compound 140],− (− = pIC50 <4.50),+++ (+++ = pIC50 ≥5.50)
O=C(NC1CCc2ccccc21)c1cc2ccccc2[nH]1 (centres unmarked) [Compound 6],+ (+ = pIC50 4.50-<5.00),+ (+ = pIC50 4.50-<5.00)
C[C@@H](NC(=O)c1cc2cc(Cl)c(F)cc2[nH]1)c1ccccc1 [Compound 208],+ (+ = pIC50 4.50-<5.00),+++ (+++ = pIC50 ≥5.50)
O=C(NC1(c2ccc(F)cc2)COC1)c1cc2cc(Cl)ccc2[nH]1 [Compound 244],− (− = pIC50 <4.50),+++ (+++ = pIC50 ≥5.50)
CC(C)Oc1ccc2[nH]c(C(=O)N[C@H](C)c3ccccc3)cc2c1 [Compound 260],+ (+ = pIC50 4.50-<5.00),+++ (+++ = pIC50 ≥5.50)
COc1ccc(-c2noc(CNC(=O)c3cc4cc(Cl)ccc4[nH]3)n2)cc1OC [Compound 113],− (− = pIC50 <4.50),+++ (+++ = pIC50 ≥5.50)
CC(NC(=O)c1cc2cc(Cl)ccc2[nH]1)c1ccc(F)cc1 (centres unmarked) [Compound 36],+ (+ = pIC50 4.50-<5.00),+++ (+++ = pIC50 ≥5.50)
O=C(NCc1cccc(Cl)c1)c1cc2cc(Cl)ccc2[nH]1 [Compound 33],− (− = pIC50 <4.50),++ (++ = pIC50 5.00-<5.50)
C[C@H](NC(=O)c1cc2cc(F)ccc2[nH]1)c1ccccc1 [Compound 40],++ (++ = pIC50 5.00-<5.50),+ (+ = pIC50 4.50-<5.00)
O=C(NC1(c2ccc(F)cc2)CC1)c1cc2cc(Cl)ccc2[nH]1 [Compound 138],− (− = pIC50 <4.50),+++ (+++ = pIC50 ≥5.50)
Cn1cc(C2(NC(=O)c3cc4cc(Cl)ccc4[nH]3)CCC2)cn1 [Compound 215],− (− = pIC50 <4.50),+++ (+++ = pIC50 ≥5.50)
